Laboratory results from patent publication US20100292232A1, “NON-NUCLEOSIDE REVERSE TRANSCRIPTASE INHIBITORS” (priority 2007, published 2010).
“Also recorded” adds a separate entry of the source. Like-named read-outs stand apart in the source and are kept apart here.

Assays:
[1] = test system: HIV-1 reverse transcription viral DNA products; experiment: real-time PCR quantitation of viral DNA products; assay type: cell-based; conditions: for effect on synthesis of early and late viral DNA products: 5 μM, 24 hours post infection, FIG. 18
Experimental: Real-time quantitation of viral DNA was accomplished using PCR as follows. The total cellular DNA was harvested 24 hours post infection with the AccuPrep genomic DNA extraction kit (Bioneer Life Science Corp., Rockville, Md.). The amount of viral DNA products was quantified by real-time PCR on ABI Prism 7900 Sequence Detection System (Applied Biosystems, Foster City, Calif.) with the following primers and probes: early HIV-1 reverse transcripts with primers ert2f, ert2r, probe ERT2 (Munk et al., Proc. Natl. Acad. Sci. 99(21):13843-48; 2002, herein incorporated by reference as to the sequence of the primers), late HIV-1 reverse transcripts with primers MH531, MH532, probe LRT-P, 2-LTR circular DNA with primers MHH535, MH536, probe MH603 (Butler et al., Nat. Med. 7(5):631-4; 2001, herein incorporated by reference as to the sequence of the primers and probes). To control the number of cell equivalent DNA in the samples, a single-copy locus in the porphobilinogen deaminase (PBGD) gene (Buckman et al., J. Virol. 77(2):1469-80; 2003) was amplified with primers PBGD1 (5′-[…]; SEQ ID NO: 1) and PBGD2 (5′-[…]; SEQ ID NO: 2) and probe PBGD-P (5′-VIC-[…]-MGBNFQ; SEQ ID NO: 3).
The quantitative real-time PCR-based approach described above was used to determine whether the presently disclosed compounds, such as 08-006-F2, block HIV infection at a step prior to the synthesis of late viral DNA products. Using different specific primers and probes, the amount of early viral DNA products, late viral DNA products, and 2LTR-containing circular forms of viral DNA, were quantified 24 hours post infection. […] As shown in F1G. 18, the effect of 5 μM compound 08-006-F2 and 5 μM AZT on the synthesis of viral DNA products was measured by quantitative real-time PCR. Quantitation of early and late HIV-1 reverse transcription products is illustrated, as is quantitation of 2-LTR containing circular DNA forms (the circular DNA forms serve as a surrogate marker for nuclear translocation of viral DNA). […]

[2] = cytotoxicity, CellTiter-Glo (ATP content) 24 hours after treatment; conditions: human, mock-infected 293T cells
[3] = test system: HIV-1 vector with RT mutation K103N; experiment: microbe, parasite or virus in culture; assay type: cell-based; conditions: Human immunodeficiency virus 1
[4] = test system: HIV-1 vector with RT mutation Y181C; experiment: microbe, parasite or virus in culture; assay type: cell-based; conditions: Human immunodeficiency virus 1
[5] = test system: VSV-G pseudotyped HIV-1 vector (wild-type, pNL4-3LucR+E-); experiment: microbe, parasite or virus in culture; assay type: cell-based; conditions: for EC50 / IC50: Human immunodeficiency virus 1, HEK-293T
[6] = test system: HIV-1 vector with RT mutation V106A; experiment: microbe, parasite or virus in culture; assay type: cell-based; conditions: Human immunodeficiency virus 1
[7] = test system: cells that express luciferase from established HIV-1 proviral DNA; experiment: effect on provirus gene expression; assay type: cell-based; conditions: data not shown
Description: It also was investigated whether 08-006-F2 exerts an additional effect on provirus gene expression.

[8] = target: T1, HIV-1 reverse transcriptase (Human immunodeficiency virus type 1 group M subtype B, UniProt P04585); experiment: in vitro purified HIV-1 reverse transcriptase assay; assay type: biochemical
T1 construct: HIV-1 RT includes a p66/p51 heterodimer; purchased Ambion, Austin, Tex
Experimental: Anti-HIV-1 reverse transcriptase activity of the disclosed inhibitor compounds was assayed in vitro using an assay adapted from King et al. (Antimicrob. Agents Chemother. 46(6): 1640-46; 2002) and Telesnitsky et al. (Methods Enzymol. 262:347-62; 1995). HIV-1 RT (0.5 units; Ambion, Austin, Tex.) was incubated with various concentrations of compounds for 5 minutes at room temperature. Then a template-primer mixture was added to reach final concentration of 5 μg/mL oligo(dT)20, 10 μg/mL poly(rA), 1.25 μM [α-32P]dTTP and 10 μM dTTP. The mixture was incubated at 37° C. for 60 minutes. Aliquots of the reaction were spotted on DEAE paper, washed twice with 2×SSC buffer (300 mM NaCl, 30 mM sodium citrate) and once with 95% ethanol, dried and exposed to PhosphorImager screen (Molecular Dynamics, Sunnyvale, Calif.). The screens were scanned by FLA-5100 instrument (Fujifilm Life Science, Stamford, Conn.) and the amount of incorporated labeled phosphate was used to quantify the RT activity. The best fitted curves and IC50 values were calculated using Prism 4 software (GraphPad Software, San Diego). […] For the in vitro studies, a triphosphate form of AZT (EMD Biosciences, San Diego, Calif.) was used.

[9] = test system: HIV-1 vector with RT mutation Y188L; experiment: microbe, parasite or virus in culture; assay type: cell-based; conditions: Human immunodeficiency virus 1
[10] = test system: wild-type and NNRTI mutant viruses (Y188L, Y181C, V106A, K103N); experiment: cell based infectivity assay, wild type and four mutant vectors together; set-up: species or system HIV-1; conditions: FIGS. 22 and 24
[11] = test system: HIV reverse transcriptase having a mutation at codon 106 and 181 and 227; conditions: strains with RT mutation at codon 106 (alanine), 181 (cysteine) and 227 (leucine); U.S. Pat. No. 7,037,644; cited from earlier work
[12] = test system: HIV reverse transcriptase having a mutation at codon 181 and 227; conditions: strains with RT mutation at codon 181 (cysteine) and 227 (leucine); U.S. Pat. No. 7,037,644; cited from earlier work
[13] = test system: HIV reverse transcriptase having a mutation at codons 103 alone or in combination with a mutation at codon 188; conditions: strains with RT mutation at codon 103 (asparagine) alone or with 188 (leucine); U.S. Pat. No. 7,037,644; cited from earlier work

Row | Structure (SMILES) | effect on synthesis of early and late viral DNA products [1] | EC50 [3] [nM] | EC50 [4] [nM] | EC50 [5] [nM] | EC50 [6] [nM] | EC50 [9] [nM] | change in drug susceptibility [11] | change in drug susceptibility [12] | change in drug susceptibility [13] | further results
1 | Clc1ccccc1-c1nc2ccccn2c1NC1CCCCC1 [08-006-F2] | blocked the synthesis of early and late viral DNA | 2360 | 1070 | 185 | 764 |  |  |  |  | inhibition of HIV-1 late RT product formation ([1]; dose response, FIG. 19): dose-dependent inhibition; CC50 at 24 h [2]: 35000 nM; combined effect with AZT on HIV-1 infectivity (isobologram) [5]: synergistic effects; also recorded: synergistic inhibition; IC50 [5]: 800 nM; IC50 ([5]; read-out: IC50 inhibition of HIV-1 vector infectivity): 170 nM; effect on provirus gene expression [7]: no significant influence; IC50 ([8]; FIG. 16 dose-response curve, read-out: IC50 inhibition of purified HIV-1 reverse transcriptase activity): 2800 nM; combined effect with AZT on purified HIV-1 reverse transcriptase (isobologram) ([8]; combination with AZT triphosphate, 50% and 90% fractional inhibitory concentrations, FIGS. 17A, 17B): synergistic effect; also recorded: synergistic inhibition
2 | Cc1cn([C@H]2C[C@H](N=[N+]=[N-])[C@@H](CO)O2)c(=O)[nH]c1=O [AZT, zidovudine] | block at the reverse transcription step | 8.76 | 6.12 | 7.7 | 9.14 | 9.35 |  |  |  | inhibition of wild-type and NNRTI-resistant RT mutant viruses (in words) [10]: efficiently inhibited
3 | Cc1ccnc2c1NC(=O)c1cccnc1N2C1CC1 [NVP, nevirapine] |  | 977 | 2000 | 27.4 | 888 | 279000 |  |  |  | 
4 | CC(C)Nc1cccnc1N1CCN(C(=O)c2cc3cc(NS(C)(=O)=O)ccc3[nH]2)CC1 [delavirdine] |  |  |  |  |  |  | moderate decrease | increase | substantial decrease | 
5 | O=C1Nc2ccc(Cl)cc2[C@@](C#CC2CC2)(C(F)(F)F)O1 [efavirenz] |  |  |  |  |  |  | slight decrease | increase | substantial decrease | 
6 | Cc1ccnc2c1NC(=O)c1cccnc1N2C1CC1 [nevirapine, Nevirapine] |  |  |  |  |  |  | substantial decrease | significant decrease | substantial decrease | 
